Test results published in ChEMBL document CHEMBL1949661, “Hit to lead evaluation of 1,2,3-triazolo[4,5-b]pyridines as PIM kinase inhibitors” (Bioorg Med Chem Lett, 2012).

Key:
[1] = Plasma clearance in BALB/C mouse at 5 mg/kg, iv; format: ADME, organism-based; set-up: dose 5 mg/kg, route intravenous
[2] = Metabolic stability in Sprague-Dawley rat liver microsomes assessed as compound remaining at 1 uM after 15 mins; format: ADME, Microsome; details: read-out: Stability
[3] = Metabolic stability in CD-1 mouse liver microsomes assessed as compound remaining at 1 uM after 15 mins; format: ADME, Microsome; details: read-out: Stability
[4] = Metabolic stability in human liver microsomes assessed as compound remaining at 1 uM after 15 mins; format: ADME, Microsome; details: read-out: Stability
[5] = Half life in BALB/C mouse plasma at 5 mg/kg, iv; format: ADME, organism-based; set-up: dose 5 mg/kg, route intravenous

clearance [1]: 54.7 mL/min/kg | remaining at […], 1 µM [2]: 91% | remaining at […], 1 µM [3]: 80% | remaining at […], 1 µM [4]: 97% | half-life [5]: 57 min
Structure (SMILES): COc1cc(NCC2CCNCC2)nc2c1nnn2-c1cccc(OC(F)(F)F)c1
